Laboratory results: article PMC12040169 (PLOS Biology, 2025)

Assay: in vitro
Conditions: human, hela cells, % viability

Compound | viability at 28.5 h, 10 µM [%]
CC(C)NS(=O)(=O)c1ccc(OCC(=O)Nc2ccc3c(c2)OCCO3)cc1 [CBK265915] | 106
CN(C)CC(C)(C)CNC(=O)C1=CC(=O)CC(C)(C)O1 [CBK153291] | 103
O=C(O)C1CC=C(Cl)CC1C(=O)Nc1ccc(Cl)cc1[N+](=O)[O-] (stereo not drawn) [CBK265612] | 101
Nc1nc(O)cc(C2CCN(CCOc3ccccc3F)C2)n1 (stereo not drawn) [CBK304726] | 102
NC(=O)c1ccc(NCCCN2CCOCC2)c([N+](=O)[O-])c1 [CBK264443] | 104
Cn1ccc2cc(NS(=O)(=O)c3ccc4[nH]c(=O)[nH]c(=O)c4c3)ccc21 [CBK286364] | 95.4
O=C(CCNS(=O)(=O)c1ccc(Cl)cc1)N1CCN(Cc2ccccc2)CC1 [CBK269405] | 101
COc1ccc(CN(/N=N/c2nonc2C)c2nonc2C)cc1[N+](=O)[O-] [CBK262386] | 99.3
N#Cc1cccc(NC(=O)NC[C@H]2C[C@@H]3CC[N@]2C[C@@H]3CN2CCOCC2)c1 [CBK288763] | 108
CC(C)(C)c1ccc(C(=O)NCCNC(=O)c2nonc2N)cc1 [CBK268869] | 89.5
O=C1CC2(CCN(C(=O)c3ccoc3)CC2)Oc2ccc3ccccc3c21 [CBK156444] | 91
OCC1CCCN1c1nccnc1-c1ccccc1F (stereo not drawn) [CBK038037] | 104
CCN1CCN(Cc2ccccc2[N+](=O)[O-])CC1 [CBK261561] | 109
O=C(O)CCC(=O)Nc1ccc(Br)cc1C(=O)c1ccccc1 [CBK262610] | 114
Cc1nnc(CN2CCOc3ccc(Br)cc3C2)o1 [CBK304079] | 99
Cc1nc2c(c(=O)[nH]1)CC[C@@H]1CN(C(=O)Cc3ccsc3)C[C@H]21 [CBK284411] | 83.5
COc1cc(-c2nccnc2NCC2CCCCC2)cc(OC)c1OC [CBK037647] | 93.9
O=C(Nc1nc(OCCN2CCCC2=O)cnc1/C=C\c1ccccc1)c1cc2ccccc2s1 [CBK145380] | 115
Cc1cc2oc(C(=O)Nc3sc4c(c3C#N)CCCC4)c(C)c2cc1C [CBK266301] | 103
CCN(CC(=O)Nc1ccc2c(c1)OCCO2)S(=O)(=O)c1ccsc1C(=O)O [CBK296717] | 95.5
Cc1ccc(OCC(O)CN2CCN(c3ccccn3)CC2)cc1C (stereo not drawn) [CBK058884] | 86.9
OCc1ccccc1-c1cc(N2CCN(Cc3cccnc3)CC2)n2nccc2n1 [CBK037105] | 98.9

Compound | viability at 28.5 h, 10 µM [%]
Cc1nc(-c2ccccc2)sc1CNC(=O)C(F)(F)F [CBK092363] | 88.8
COc1ccc(CN2/C(=N/c3ccccc3)S[C@H]3[C@@H]2[C@@H](O)[C@H](O)C[C@@H]3C(N)=O)cc1 [CBK288941] | 102
c1cn2cnnc2c(N2CCc3sccc3C2)n1 [CBK305180] | 96.6
O=C(NCC(O)c1ccccc1)c1ccc(Cl)c(S(=O)(=O)N2CCCCC2)c1 (stereo not drawn) [CBK269197] | 81
COc1cc(/C=N/Nc2ccc(C(=O)O)cc2)cc(Br)c1O [CBK263318] | 95.8
O=C(O)c1cccc(-c2ccc(/C=C\c3nc(O)c([N+](=O)[O-])c(=O)[nH]3)o2)c1 [CBK267209] | 96.9
CCN1CCC(CNS(=O)(=O)c2ccc(N3CCCC3=O)cc2)CC1 [CBK305663] | 101
CCCOCC1CCN(C(=O)Nc2ccc(Oc3cccnc3)cc2)C1 (stereo not drawn) [CBK306799] | 102
COC(=O)C1(Cc2ccccc2)CN(C(=O)OC(C)(C)C)CCC1=O (stereo not drawn) [CBK003486] | 93.2
O=c1c2ccccc2n2c(=O)[nH]nc2n1-c1ccccc1 [CBK288352] | 104
Cc1ccc(C)c(C(=O)C2=C(O)C(=O)N(CCCN3CCOCC3)C2c2ccncc2)c1 (stereo not drawn) [CBK265492] | 103
c1csc(-c2cc3cccnc3n2CCN2CCOCC2)c1 [CBK282718] | 80.5
Cc1cc(C)c2c(N)c(C(=O)Nc3ccc(Br)cc3)sc2n1 [CBK072019] | 108
c1ccc(COc2ccccc2CNCCN2CCOCC2)cc1 [CBK278212C] | 90.7
O=C(c1ccccc1F)N1CCC(c2cc3ncccc3[nH]2)CC1 [CBK283391] | 86.5
O=C(CSc1nnc(COc2ccc(Br)cc2)o1)OC1CCCCC1 [CBK027482] | 88.8
CC1CNCCN1C(=O)c1ccnc(N2CCN(C)CC2)c1 (stereo not drawn) [CBK304122] | 88.6
O=C(CC1CCN(C(=O)Cc2ccccc2)CC1)NC1(c2ccccc2)CCCC1 [CBK285965] | 101
CCc1nc2c(C(=O)NCCNC(C)=O)cnn2c(CC)c1Cc1ccc(Cl)cc1 [CBK165730] | 86
Cc1ccc(C(=O)C(OC(=O)c2ccc(-c3nnc(-c4ccccc4)o3)cc2)c2ccccc2)cc1 (stereo not drawn) [CBK265177] | 82.7
CNCCc1n[nH]c(N)n1 [CBK020959] | 89.4
COc1ccc(N2CCN(/C(=N/S(=O)(=O)c3ccccc3)Nc3nc(C)cc(C)n3)CC2)cc1 [CBK266750] | 88.7

Compound | viability at 28.5 h, 10 µM [%]
Cc1nc(CCC(=O)N2Cc3cnn(Cc4ccc(F)cc4)c3C2)n[nH]1 [CBK306993] | 109
O=C(CC1(O)C(=O)N(Cc2ccccc2Cl)c2ccccc21)c1cc2ccccc2oc1=O (stereo not drawn) [CBK265255] | 96.2
O=C(c1ccccc1F)N1C[C@H](c2ccsc2)[C@H]2CN(Cc3ccccc3F)CC[C@H]21 [CBK285656] | 97.4
CCC1C(=O)N=C(SCC(=O)Nc2ncccn2)NC1=O (stereo not drawn) [CBK263920] | 94.6
Cc1ccccc1C(NC(=O)C1CCN(C/C=C/c2ccccc2)CC1)c1ncccc1C (stereo not drawn) [CBK147980] | 102
Cc1[nH]c2c(C)cccc2c1CC(=O)NC1CCCN(C)C1 (stereo not drawn) [CBK282485] | 74.1
COC(=O)c1sc2ncccc2c1NS(=O)(=O)c1ccc(C(F)(F)F)cc1[N+](=O)[O-] [CBK049969] | 95.4
Cc1cc(C(=O)N(C)C2CCCCC2)no1 [CBK057375] | 113
Cn1nc2c(cc1=O)CN(C(=O)c1ccc3cc[nH]c3c1)CC2 [CBK304343] | 93.8
CCN(Cc1ccc(OC)c(OC)c1)C(=O)CSc1nc(CC(=O)O)cs1 [CBK296643] | 97.5
COc1ccc(C)cc1S(=O)(=O)Nc1cc(OCCN2CCOCC2)c2occc2c1 [CBK067419C] | 87.7
C[C@@H]1[C@H](c2ccccc2)OC(=O)N1C1CCN(S(=O)(=O)c2cccs2)CC1 [CBK043302] | 93.9
Cc1ccc(NC(=O)N(Cc2ccc(-c3ccccc3)cc2)CC(C)(C)CN)cc1[N+](=O)[O-] [CBK002439C] | 83.7
CC(C)CC(Nc1ncnc2c1oc1ccccc12)C(=O)O (stereo not drawn) [CBK293974] | 100
Cc1nnc(N2CCN(Cc3sccc3Cl)CC2)nc1C [CBK304075] | 93.7
COc1ccc(CN[C@@H]2CCC[C@H]2Cc2cc(C)no2)cc1 [CBK285401] | 94.4
CN(CC(=O)Nc1ccccc1-c1ccccc1)S(=O)(=O)c1ccc2ccccc2c1 [CBK267432] | 104
O=C(CN1CCCCCC1)N1CCCC1c1n[nH]cc1-c1cccc(Cl)c1 (stereo not drawn) [CBK283084] | 94.7
CCCC(=O)N1C2CCC1c1cnc3cc(-c4ccco4)nn3c1C2 (stereo not drawn) [CBK284383] | 96.6
Nc1nc2c([C@@H]3O[C@H](CO)[C@H](O)C3O)c[nH]c2c(=O)[nH]1 (stereo partly drawn) [CBK201292] | 94.5
COC(=O)N1CCCCC1C(=O)NCCc1nc(C)cc(C(F)(F)F)n1 (stereo not drawn) [CBK306752] | 94.2
Cn1ncc2c(NCCCN3CCCC(CO)C3)nc(C(C)(C)C)nc21 (stereo not drawn) [CBK307082] | 93

Compound | viability at 28.5 h, 10 µM [%]
CC(=O)Nc1ccc(-c2ccc(C(=O)NCCc3ccc(O)cc3)cn2)cc1 [CBK158840] | 105
Nc1ncc(Br)nc1N1CCC[C@@H]1CO [CBK085450] | 105
COc1ccc(CCOc2nccnc2-c2ccc(OC(F)(F)F)cc2)cc1 [CBK106846] | 109
Cc1cccnc1NC(=S)Nc1ccc(S(N)(=O)=O)cc1 [CBK267049] | 111
O=C(N[C@@H](Cn1cc(F)c(=O)[nH]c1=O)C(=O)O)C1CCCCC1 [CBK289661] | 89.2
Cc1cc(C)c(S(=O)(=O)Nc2ccccc2C(=O)NCc2ccco2)c(C)c1 [CBK266382] | 98.2
Cn1c(CN2CCN(C(=O)Nc3ccccc3)CC2)nc2cc([N+](=O)[O-])ccc21 [CBK268260] | 91.8
Cc1ccc(N2CC(C(=O)NCCc3ccc(S(N)(=O)=O)cc3)CC2=O)cc1 (stereo not drawn) [CBK267531] | 84.4
O=C(NCc1cccs1)C1(c2ccccc2)CCCC1 [CBK149533] | 103
COc1cc(-c2cc(C(=O)O)c3c(-c4ccc(C)cc4)n[nH]c3n2)ccc1O [CBK287268] | 83.9
Cc1nonc1NC(=O)Nc1ccncc1 [CBK260982] | 94.7
Cc1ccccc1NC(=O)Cc1nc(CN2CCC3(CCOC3)C2)cs1 (stereo not drawn) [CBK304164] | 95.5
CC(C)C(=O)N1C[C@H]2CCc3nnc(-c4ccccc4)n3[C@H]2C1 [CBK283438] | 88
O=C(NCC1Cc2ccccc2O1)c1cccc(NC(=O)c2ccco2)c1 (stereo not drawn) [CBK298302] | 83.3
COCCn1c(SC(C)C(=O)N2CCOCC2)nc2cc(Cl)ccc21 (stereo not drawn) [CBK305580] | 94.8
CC(C(=O)Nc1ccc(S(N)(=O)=O)cc1)N1CCCc2ccccc21 (stereo not drawn) [CBK306108] | 116
CN1CCC(N2CCN(C(=O)c3cncc(-c4ccc(C(=O)N5CCOCC5)cc4)c3)CC2)CC1 [CBK158600] | 115
COc1cc(-c2cc(-c3ccccc3)nc(SCC(=O)O)c2C#N)cc(OC)c1OC [CBK131867] | 99.3
CC(C)(C)c1ccc(-c2nnc(SCC(=O)c3ccc(F)cc3)o2)cc1 [CBK067988] | 102
CC(C)(C)OC(=O)N1CCC(COc2ncc(-c3ccc(C(=O)N4CCC[C@@H]4CO)nc3)cn2)CC1 [CBK170022] | 90.9
CC(CCCC(C)(C)O)CC1OCCC(C)O1 (stereo not drawn) [CBK019986] | 115
